Reference: patent US20260182574A1 (priority 2022, published 2026)

What was measured:
Corynespora zeae = assay: Activity against Corynespora zeae in the microtiterplate test; type: cell-based; conditions: 31 ppm; microtiter plate
Botrytis cinerea [1] = assay: Activity against the grey mold Botrytis cinerea in the microtiterplate test; type: cell-based; conditions: 31 ppm; microtiter plate, 405 nm, 7 days after inoculation
[2] = system: Corynespora cassiicola G413A mutant; assay: Activity against Corynespora cassiicola G413A mutant in the microtiterplate test; type: cell-based; conditions: 31 ppm; microtiter plate; G413A mutant isolates
Sclerotinia sclerotiorum = assay: Preventative fungicidal control of white mold on cabbage caused by Sclerotinia sclerotiorum (green house); type: in vivo; conditions: 125 ppm; cabbage sprayed 1 day before inoculation; assessed after 8 days; untreated plants 80% infected
Method: (§1) The compound was dissolved in a mixture of acetone and/or dimethylsulfoxide and the wetting agent/emulsifier Wettol, which is based on ethoxylated alkylphenoles, in a ratio (volume) solvent-emulsifier of 99 to 1 to give a total volume of 5 ml. Subsequently, water was added to total volume of 100 ml.
(§2) This stock solution was then diluted with the described solvent-emulsifier-water mixture to the final concentration given in the table below.
Cabagges were grown in pots to the 13 to 14 leaf stage. These plants were sprayed to run-off with previously described spray solution, containing the concentration of active ingredient or their mixture mentioned in the table below. The plants could air-dry. The next day the cabbage leaves were inoculated with 50 μl of a mixture of ground petals, methylcellulose, water, and yeast-bactopeptone media (includes spores of Sclerotinia sclerotiorum). After 8 days at 21° C. and a relative humidity of 60% the extent of fungal attack on the leaves were visually assessed as % diseased leaf area.

Botrytis cinerea [3] = assay: Long lasting control of Botrytis cinerea on leaves of green pepper (green house); type: in vivo; conditions: 125 ppm; green pepper sprayed 7 days before inoculation; assessed after 5 days; untreated plants 90% infected
Method: as §1, §2
Young seedlings of green pepper were grown in pots to the 4 to 5 leaf stage. These plants were sprayed to run-off with previously described spray solution, containing the concentration of active ingredient or mixture mentioned in the table below. The plants were then cultivated in the greenhouse for 7 days and then inoculated with an aqueous biomalt or DOB solution containing the spore suspension of Botrytis cinerea. Then the plants were immediately transferred to a humid chamber. After 5 days at 22 to 24 °C and a saturated relative humidity, the extent of fungal attack on the leaves was visually assessed as % diseased leaf area.

Cercospora sojina = assay: Activity against Cercospora sojina in the microtiterplate test; type: cell-based; conditions: 31 ppm; microtiter plate

Row | SMILES | growth of the pathogen (relative to compound-free control = 100%) (Corynespora zeae) [%] | growth of the pathogen (relative to compound-free control = 100%) (Botrytis cinerea [1]) [%] | growth of the pathogen (relative to compound-free control = 100%) [2] [%] | growth of the pathogen (% diseased leaf area) (Sclerotinia sclerotiorum) | growth of the pathogen (% diseased leaf area) (Botrytis cinerea [3]) | growth of the pathogen (relative to compound-free control = 100%) (Cercospora sojina) [%]
1 | CN1c2ccccc2C(c2cnc3c(F)cccc3c2)=NC(=O)C1(C)C [Ex-10] | 8 | 4 | – | – | – | –
2 | CC1(C)C(=O)N=C(c2cnc3c(F)cccc3c2)c2ccccc2N1C#N [Ex-12] | – | 4 | – | – | – | –
3 | CN1CC2(CC2)N=C(c2cnc3c(F)cccc3c2)c2cccc(F)c21 [Ex-17] | – | 4 | 11 | up to 8% | up to 15% | 6
